The structures appear in SMILES notation. Read-outs that look alike come from different tables or passages of the source.

For 19 compounds, EC50 results are on record in US11498903B2 (BRISTOL-MYERS SQUIBB COMPANY, priority 2017, dated 2022).

The target in this assay is T1, human APJ receptor (Homo sapiens, UniProt P35414).
T1 construct: expressed in transfected cells
T1 sequence (P35414 1-380): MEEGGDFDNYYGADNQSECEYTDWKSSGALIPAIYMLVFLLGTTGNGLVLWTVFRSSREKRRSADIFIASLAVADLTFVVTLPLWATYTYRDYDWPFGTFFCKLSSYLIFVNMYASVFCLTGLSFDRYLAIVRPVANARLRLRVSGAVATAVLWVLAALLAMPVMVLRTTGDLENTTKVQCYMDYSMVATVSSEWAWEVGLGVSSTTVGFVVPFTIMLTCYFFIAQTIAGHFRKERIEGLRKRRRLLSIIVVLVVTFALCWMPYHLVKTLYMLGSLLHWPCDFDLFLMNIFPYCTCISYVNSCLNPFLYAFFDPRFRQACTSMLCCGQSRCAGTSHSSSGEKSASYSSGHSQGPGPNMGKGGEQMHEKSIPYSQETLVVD
Kind of assay: Intracellular cAMP accumulation assay (APJ hcAMP, HTRF). The class given is cell-based. The essentials: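 Inhibition of 2 μM forskolin-driven cAMP ([…] present) measured by HTRF in 5,000 HEK293 cells/well stably expressing human APJ, 30 min, room temperature. EC50 came from a variable-slope sigmoidal fit; Ymax was relative to (Pyr1)apelin-13 set at 100%.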
In general terms: Changes in cAMP serve as a functional read-out for many G protein-coupled receptors.

The mark [1] stands for this setting: Table 1, HEK293 cells stably expressing human APJ receptor, inhibition of forskolin-mediated cAMP production, read-out: APJ hcAMP EC50.
Setting [2] is: human APJ, cAMP, potency range class, read-out: APJ cAMP Human EC50.
Setting [3] is: Table 3, HEK293 cells stably expressing human APJ receptor, read-out: APJ cAMP Human EC50.
[4] abbreviates: Table 2, HEK293 cells stably expressing human APJ receptor, read-out: APJ cAMP Human EC50.

As to `CCCC(NC(=O)c1ccc(-c2c(Cl)cccc2-c2nc3ccccc3[nH]2)c(C(=O)O)c1)c1c(C)cc(C)cc1C` (single isomer, unassigned) [Example 163], the EC50 (as a rule, the concentration needed to bring the measured effect to its halfway point) is, setting by setting: under setting [1], under 10 nM; under setting [2], under 10 nM.
For `COc1cc2[nH]c(-c3cccc(Cl)c3-c3ccc(C(=O)N4CCC(O)CC4)cc3C(=O)O)nc2cc1F` [Example 123, (S)-2′-chloro-6′-(5-fluoro-6-methoxy-1H-1,3-benzodiazol-2-yl)-4-(4-hydroxypiperidine-1-carbonyl)-[1,1′-biphenyl]-2-carboxylic acid], the concentration giving a half-maximal response (EC50) is, setting by setting: under setting [1], 10 to 100 nM; under setting [3], 10 to 100 nM.
In the case of `CCC[C@@H](NC(=O)c1ccc(-c2cc(Cl)ccc2-c2nc3cccc(C)c3[nH]2)c(C(=O)O)c1)c1ccccc1` [Example 49, 5′-chloro-2,-(4-methyl-1H-1,3-benzodiazol-2-yl)-4-{[(1R)-1-phenylbutyl]carbamoyl}-[1,1′-biphenyl]-2-carboxylic acid], the EC50 under setting [1] was in the range of 10 to 100 nM and the EC50 under setting [4] lay within 10 to 100 nM.
`CCC[C@@H](NC(=O)c1ccc(-c2cc(Cl)ccc2-c2nc3cc(Br)ccc3[nH]2)c(C(=O)O)c1)c1ccccc1` [Example 13, 2′-(5-bromo-1H-1,3-benzodiazol-2-yl)-5′-chloro-4-{[(1R)-1-phenylbutyl]carbamoyl}-[1,1′-biphenyl]-2-carboxylic acid]: the EC50 by setting is: under setting [1], under 10 nM; under setting [4], under 10 nM.
`CCCC(NC(=O)c1ccc(-c2c(Cl)cccc2-c2nc3ccccc3[nH]2)c(C(=O)O)c1)c1ccc(Cl)cc1F` (single isomer, unassigned) [Example 182]: the EC50 is, setting by setting: under setting [1], under 10 nM; under setting [2], under 10 nM.
As to `COC[C@H](Cc1ccccc1)NC(=O)c1ccc(-c2cc(Cl)ccc2-c2nc3ccccc3[nH]2)c(C(=O)O)c1` [Example 78, 2′-(1H-1,3-benzodiazol-2-yl)-5′-chloro-4-{[(2S)-1-methoxy-3-phenylpropan-2-yl]carbamoyl}-[1,1′-biphenyl]-2-carboxylic acid], the EC50 was in the range of 101 to 500 nM under setting [1] and 101 to 500 nM under setting [4].
`CCC[C@@H](NC(=O)c1ccc(-c2c(C)cccc2-c2nc3c(O)cccc3[nH]2)c(C(=O)O)c1)c1ccccc1` [Example 148, 2′-(4-hydroxy-1H-1,3-benzodiazol-2-yl)-6′-methyl-4-{[(1R)-1-phenylbutyl]carbamoyl}-[1,1′-biphenyl]-2-carboxylic acid]: the EC50 runs as follows: under setting [1], under 10 nM; under setting [3], under 10 nM.
As for `CCC[C@@H](NC(=O)c1cc(C(=O)O)c(-c2cc(Cl)ccc2-c2nc3cc(OC)ccc3[nH]2)cc1C)c1ccccc1` [Example 67, 5′-chloro-2′-(5-methoxy-1H-1,3-benzodiazol-2-yl)-5-methyl-4-{[(1R)-1-phenylbutyl]carbamoyl}-[1,1′-biphenyl]-2-carboxylic acid], the EC50 was under 10 nM under setting [1] and under 10 nM under setting [4].
For the compound `CCC[C@@H](NC(=O)c1ccc(-c2c(C)cccc2-c2nc3cc(C(F)(F)F)ccc3[nH]2)c(C(=O)O)c1)c1ccccc1` (single isomer, unassigned) [Example 147], under setting [3], the EC50 lay within 101 to 500 nM.
Still for that read-out and setting: for `CCC[C@H](NC(=O)c1ccc(-c2c(Cl)cccc2-c2nc3ccccc3[nH]2)c(C(=O)O)c1)c1ccccc1` (atropisomer, axis not shown) [Example 152, (S)-2′-(1H-1,3-benzodiazol-2-yl)-6′-chloro-4-{[(1S)-1-phenylbutyl]carbamoyl}-[1,1′-biphenyl]-2-carboxylic acid] the value was 10 to 100 nM.
Regarding `COC[C@@H](NC(=O)c1ccc(-c2cc(Cl)ccc2-c2nc3cc(OC)ccc3[nH]2)c(C(=O)O)c1)c1ccccc1` [Example 12, 5′-chloro-4-{[(1S)-2-methoxy-1-phenylethyl]carbamoyl}-2′-(5-methoxy-1H-1,3-benzodiazol-2-yl)-[1,1′ biphenyl]-2-carboxylic acid], the EC50 under setting [1] is under 10 nM and the EC50 under setting [4] is under 10 nM.
For `COc1cc2[nH]c(-c3cccc(Cl)c3-c3ccc(C(=O)NCc4ccc(Cl)cc4)cc3C(=O)O)nc2cc1F` [Example 120, (S)-2′-chloro-4-{[(4-chlorophenyl)methyl]carbamoyl}-6′-(5-fluoro-6-methoxy-1H-1,3-benzodiazol-2-yl)-[1,1′-biphenyl]-2-carboxylic acid], the EC50 was in the range of 10 to 100 nM under setting [1] and 10 to 100 nM under setting [3].
Take `CCC[C@@H](NC(=O)c1ccc(-c2cc(OC)ccc2-c2nc3cc(OC)ccc3[nH]2)c(C(=O)O)c1)c1ccccc1` [Example 59, 5′-methoxy-2′-(5-methoxy-1H-1,3-benzodiazol-2-yl)-4-{[(1R)-1-phenylbutyl]carbamoyl}-[1,1′-biphenyl]-2-carboxylic acid]: the EC50 is, setting by setting: under setting [1], under 10 nM; under setting [4], under 10 nM.
On to `CCC[C@@H](NC(=O)c1ccc(-c2ccc(F)cc2-c2nc3cc(C(C)(C)C)ccc3[nH]2)c(C(=O)O)c1)c1ccccc1` [Example 40, 2′-(5-tert-butyl-1H-1,3-benzodiazol-2-yl)-4′-fluoro-4-{[(1R)-1-phenylbutyl]carbamoyl}-[1,1′-biphenyl]-2-carboxylic acid], for which the EC50 reads like this: under setting [1], 10 to 100 nM; under setting [4], 10 to 100 nM.
Regarding `CN(C)C[C@@H](NC(=O)c1ccc(-c2cc(Cl)ccc2-c2nc3ccccc3[nH]2)c(C(=O)O)c1)c1ccccc1` [Example 77, 2′-(1H-1,3-benzodiazol-2-yl)-5′-chloro-4-{[(1S)-2-(dimethylamino)-1-phenylethyl]carbamoyl}-[1,1′-biphenyl]-2-carboxylic acid], the EC50 was 10 to 100 nM under setting [1] and 10 to 100 nM under setting [4].
For `CCCC(NC(=O)c1ccc(-c2cc(Cl)ccc2-c2nc3cc(C(C)(C)C)ccc3[nH]2)c(C(=O)O)c1)c1ccccc1OC` (stereo not drawn) [Example 241, 2′-(5-tert-butyl-1H-1,3-benzodiazol-2-yl)-5′-chloro-4-{[1-(2-methoxyphenyl)butyl]carbamoyl}-[1,1′-biphenyl]-2-carboxylic acid], the EC50 was under 10 nM under setting [1] and under 10 nM under setting [2].
Regarding `COc1cc2[nH]c(-c3cccc(Cl)c3-c3ccc(C(=O)N4CCc5ccccc5C4)cc3C(=O)O)nc2cc1F` [Example 113, (S)-2′-chloro-6′-(5-fluoro-6-methoxy-1H-1,3-benzodiazol-2-yl)-4-(1,2,3,4-tetrahydroisoquinoline-2-carbonyl)-[1,1′-biphenyl]-2-carboxylic acid], the EC50 was under 10 nM under setting [1] and under 10 nM under setting [3].
Regarding `O=C(NC(CC1CCOCC1)c1ccccc1)c1ccc(-c2cc(Cl)ccc2-c2nc3ccccc3[nH]2)c(C(=O)O)c1` (stereo not drawn) [Example 216, 2′-(1H-1,3-benzodiazol-2-yl)-5′-chloro-4-{[2-(oxan-4-yl)-1-phenylethyl]carbamoyl}-[1,1′-biphenyl]-2-carboxylic acid], the EC50 is 101 to 500 nM under setting [1] and 101 to 500 nM under setting [2].
Consider `CCC[C@@H](NC(=O)c1ccc(-c2cc(Cl)ccc2-c2nc3nc(C)ccc3[nH]2)c(C(=O)O)c1)c1ccccc1` [Example 30, 5′-chloro-2′-{5-methyl-1H-imidazo[4,5-b]pyridin-2-yl}-4-{[(1R)-1-phenylbutyl]carbamoyl}-[1,1′-biphenyl]-2-carboxylic acid], for which the concentration giving a half-maximal response (EC50) by setting is: under setting [1], 10 to 100 nM; under setting [4], 10 to 100 nM.
